Results: US9945862B2, “Biomarkers for predicting and assessing responsiveness of thyroid and kidney cancer subjects to lenvatinib compounds” (Eisai R&D Management Co., Ltd., priority 2011, dated 2018)

Test system: cytokine, chemokine and angiogenic factors (blood biomarkers)
Assay: Serum blood biomarkers (cytokine, chemokine and angiogenic factors) by ELISA and multiplex kits, pre- and post-treatment with E7080
Assay type: in vivo, human
Method: Patients received E7080 at a dose of 24 mg oral once daily in 28 day cycles. […] 7.5 mL of blood was drawn into serum […] tube (SST) and let to clot at room temperature for at least 30 min. Within 60 minutes of sample collection, the tubes were centrifuged for 10 minutes at 20-25° C. at 1400×g. The supernatant was drawn without disturbing the pellet and the serum was mixed and divided into two sample tubes and stored frozen (−70° C.) at an upright position until further treatment for analysis. Serum samples from 58 patients were used for blood biomarker analysis. […] The association of progression free survival with or without a covariate was analyzed. The covariates used are the following PK parameters: cycle 1 day 1 Cmax (E7080 concentration 2 hr after dosing on cycle 1 day 1: MAX1); cycle 1 day 1 Ctrough (E7080 concentration before dosing on cycle1 day 8: MIN1); cycle 2 day 1 Cmax (E7080 concentration 2 hrs after dosing on cycle 2 day 1: MAX2); cycle 2 day 1 Ctrough (E7080 concentration before dosing on cycle 2 day 1: MIN2). Serum samples were tested in batch format where all timepoints from the same subject were assayed on the same day. On the day of assay, samples were removed from −80° C. and allowed to thaw and reach room temperature. The serum samples were tested using the following commercial assay kits as per the manufacturer's instructions: Human Soluble Tie-2 ELISA (R&D Systems Cat. No. DTE200), Human Angiopoietin-1 ELISA (R&D Systems Cat. No. DANG10), Human FGF23 ELISA, Human SDF-1a ELISA. Human Angiopoietin-2 ELISA (R&D Systems Cat. No. DANG20), Human Soluble Receptor Multiplex (Millipore Cat. No. HSCR-32K; sVEGF R1, sVEGF R2 and sVEGF R3 only), Human Cytokine/Chemokine Panel I Multiplex (Millipore Cat. No. MPXHCYTO-60K; IL-1α, IL-1β, IL-1ra, IL-2, IL-4, IL-5, IL-6, IL-7, IL-8, IL-10, IL-12p40, IL-12p70, IL-13, IL-15, IL-17, sCD40L, EGF, Eotaxin, FGF-2, G-CSF, GM-CSF, IFN-γ, IP-10, MCP-1, MIP-1α, MIP-1β, PDGF-AA, RANTES, TGF-α, TNF-α and VEGF only) and Human Growth Factor Multiplex (Origene TruPLEX Cat. No. AM100096; PDGF-AB, PDGF-BB, FGF4, VEGFD, FGF2, EGF, HGF, FLT3LG, ANGPT2, PGF and VEGFA).
The ELISA plates were measured using a Molecular Devices UVmax kinetic microplate reader with SoftMax Pro 5.2 software. The multiplex assays were performed using the Bio-Rad Bio-Plex system with Bio-Plex Manager 4.1 software. Final protein concentrations (pg/mL) were calculated from the standard curve for each assay. Depending on the assay, serum samples may have been diluted in assay buffer prior to testing. In these cases, protein concentrations were multiplied by the dilution factor.
From 58 patient samples, between 27 and 49 pre- and post-treatment blood samples were used for analyses.

COc1cc2nccc(Oc3ccc(NC(=O)NC4CC4)c(Cl)c3)c2cc1C(N)=O [E7080, 4-(3-chloro-4-(cyclopropylaminocarbonyl)aminophenoxy)-7-methoxy-6-quinolinecarboxamide]
ANG2 (90) concentration (Median), PR group (CYCLE 1 DAY 1 (pre-treatment)): 829.5 pg/mL
ANG2 (90) concentration (Median), others (SD or PD) (CYCLE 1 DAY 1 (pre-treatment)): 1032.9 pg/mL
Ang-2 concentration (Median), PR group (CYCLE 1 DAY 1 (pre-treatment)): 2530.5 pg/mL
Ang-2 concentration (Median), others (SD or PD) (CYCLE 1 DAY 1 (pre-treatment)): 3399 pg/mL
IFN-g concentration (Median), PR group (CYCLE 1 DAY 1 (pre-treatment)): 7.9 pg/mL
IFN-g concentration (Median), others (SD or PD) (CYCLE 1 DAY 1 (pre-treatment)): 21.2 pg/mL
ANG2 (90) concentration (Median), PR group (CYCLE 1 DAY 8): 591.7 pg/mL
ANG2 (90) concentration (Median), others (SD or PD) (CYCLE 1 DAY 8): 799.3 pg/mL
ANG2 (90) serum level post treatment (median) (CYCLE 1 DAY 8): 688.6 pg/mL
Ang-2 serum level post treatment (median) (CYCLE 1 DAY 8): 1812 pg/mL
Eotaxin serum level post treatment (median) (CYCLE 1 DAY 8): 154.7 pg/mL
FLT3 LG (89) serum level post treatment (median) (CYCLE 1 DAY 8): 71.1 pg/mL
G-CSF serum level post treatment (median) (CYCLE 1 DAY 8): 67.1 pg/mL
HGF (86) serum level post treatment (median) (CYCLE 1 DAY 8): 1339.3 pg/mL
IL-6 serum level post treatment (median) (CYCLE 1 DAY 8): 17.3 pg/mL
IL-7 serum level post treatment (median) (CYCLE 1 DAY 8): 6.4 pg/mL
IL-8 serum level post treatment (median) (CYCLE 1 DAY 8): 31.7 pg/mL
IL-17 serum level post treatment (median) (CYCLE 1 DAY 8): 14.4 pg/mL
IP-10 serum level post treatment (median) (CYCLE 1 DAY 8): 474.3 pg/mL
PGF (91) serum level post treatment (median) (CYCLE 1 DAY 8): 35.9 pg/mL
SDF-1a concentration (Median), PR group (CYCLE 1 DAY 8): 3294 pg/mL
SDF-1a concentration (Median), others (SD or PD) (CYCLE 1 DAY 8): 2915 pg/mL
SDF-1a serum level post treatment (median) (CYCLE 1 DAY 8): 3129.0 pg/mL
TGFa serum level post treatment (median) (CYCLE 1 DAY 8): 14.6 pg/mL
Tie-2 serum level post treatment (median) (CYCLE 1 DAY 8): 31685 pg/mL
VEGF serum level post treatment (median) (CYCLE 1 DAY 8): 741.4 pg/mL
VEGFA (100) serum level post treatment (median) (CYCLE 1 DAY 8): 202.1 pg/mL
sVEGFR1 serum level post treatment (median) (CYCLE 1 DAY 8): 300 pg/mL
sVEGFR2 serum level post treatment (median) (CYCLE 1 DAY 8): 18823.1 pg/mL
FGF-2 ratio (Median), PR group (CYCLE 1 DAY 8/CYCLE 1 DAY 1): 1.189
FGF-2 ratio (Median), others (SD or PD) (CYCLE 1 DAY 8/CYCLE 1 DAY 1): 0.952
GM-CSF ratio (Median), PR group (CYCLE 1 DAY 8/CYCLE 1 DAY 1): 1.037
GM-CSF ratio (Median), others (SD or PD) (CYCLE 1 DAY 8/CYCLE 1 DAY 1): 0.945
ANG2 (90) fold change (median) (CYCLE 1 DAY 8 vs CYCLE 1 DAY 1): 0.671
Ang-2 fold change (median) (CYCLE 1 DAY 8 vs CYCLE 1 DAY 1): 0.665
Eotaxin fold change (median) (CYCLE 1 DAY 8 vs CYCLE 1 DAY 1): 1.171
FLT3 LG (89) fold change (median) (CYCLE 1 DAY 8 vs CYCLE 1 DAY 1): 0.885
G-CSF fold change (median) (CYCLE 1 DAY 8 vs CYCLE 1 DAY 1): 1.25
HGF (86) fold change (median) (CYCLE 1 DAY 8 vs CYCLE 1 DAY 1): 1.096
IL-6 fold change (median) (CYCLE 1 DAY 8 vs CYCLE 1 DAY 1): 1.824
IL-7 fold change (median) (CYCLE 1 DAY 8 vs CYCLE 1 DAY 1): 1
IL-8 fold change (median) (CYCLE 1 DAY 8 vs CYCLE 1 DAY 1): 1.164
IL-17 fold change (median) (CYCLE 1 DAY 8 vs CYCLE 1 DAY 1): 1.025
IP-10 fold change (median) (CYCLE 1 DAY 8 vs CYCLE 1 DAY 1): 1.249
PGF (91) fold change (median) (CYCLE 1 DAY 8 vs CYCLE 1 DAY 1): 2.306
SDF-1a fold change (median) (CYCLE 1 DAY 8 vs CYCLE 1 DAY 1): 1.21
TGFa fold change (median) (CYCLE 1 DAY 8 vs CYCLE 1 DAY 1): 1.157
Tie-2 fold change (median) (CYCLE 1 DAY 8 vs CYCLE 1 DAY 1): 0.917
VEGF fold change (median) (CYCLE 1 DAY 8 vs CYCLE 1 DAY 1): 1.29
VEGFA (100) fold change (median) (CYCLE 1 DAY 8 vs CYCLE 1 DAY 1): 1.28
sVEGFR1 fold change (median) (CYCLE 1 DAY 8 vs CYCLE 1 DAY 1): 0.92
sVEGFR2 fold change (median) (CYCLE 1 DAY 8 vs CYCLE 1 DAY 1): 0.676
FGF2 (79) ratio (Median), PR group (CYCLE 2 DAY 2/CYCLE 1 DAY 8): 1.132
FGF2 (79) ratio (Median), others (SD or PD) (CYCLE 2 DAY 2/CYCLE 1 DAY 8): 0.978
GM-CSF ratio (Median), PR group (CYCLE 2 DAY 2/CYCLE 1 DAY 8): 1.051
GM-CSF ratio (Median), others (SD or PD) (CYCLE 2 DAY 2/CYCLE 1 DAY 8): 0.876
HGF (86) ratio (Median), PR group (CYCLE 2 DAY 2/CYCLE 1 DAY 8): 0.789
HGF (86) ratio (Median), others (SD or PD) (CYCLE 2 DAY 2/CYCLE 1 DAY 8): 1.087
Tie-2 ratio (Median), PR group (CYCLE 2 DAY 2/CYCLE 1 DAY 8): 0.791
Tie-2 ratio (Median), others (SD or PD) (CYCLE 2 DAY 2/CYCLE 1 DAY 8): 0.852
VEGFA (100) ratio (Median), PR group (CYCLE 2 DAY 2/CYCLE 1 DAY 8): 0.899
VEGFA (100) ratio (Median), others (SD or PD) (CYCLE 2 DAY 2/CYCLE 1 DAY 8): 1.172
ANG2 (90) serum level post treatment (median) (CYCLE 2 DAY 8): 600.6 pg/mL
Ang-2 serum level post treatment (median) (CYCLE 2 DAY 8): 1533 pg/mL
EGF (80) serum level post treatment (median) (CYCLE 2 DAY 8): 875.8 pg/mL
EGF serum level post treatment (median) (CYCLE 2 DAY 8): 75.9 pg/mL
Eotaxin serum level post treatment (median) (CYCLE 2 DAY 8): 177 pg/mL
G-CSF serum level post treatment (median) (CYCLE 2 DAY 8): 61.3 pg/mL
IL-6 concentration (Median), PR group (CYCLE 2 DAY 8): 8.2 pg/mL
IL-6 concentration (Median), others (SD or PD) (CYCLE 2 DAY 8): 33.9 pg/mL
IL-6 serum level post treatment (median) (CYCLE 2 DAY 8): 15 pg/mL
IL-8 serum level post treatment (median) (CYCLE 2 DAY 8): 31.4 pg/mL
IP-10 serum level post treatment (median) (CYCLE 2 DAY 8): 602.8 pg/mL
MCP-1 serum level post treatment (median) (CYCLE 2 DAY 8): 618.0 pg/mL
PGF (91) serum level post treatment (median) (CYCLE 2 DAY 8): 46.0 pg/mL
SDF-1a serum level post treatment (median) (CYCLE 2 DAY 8): 3529.5 pg/mL
Tie-2 serum level post treatment (median) (CYCLE 2 DAY 8): 26220 pg/mL
VEGFA (100) serum level post treatment (median) (CYCLE 2 DAY 8): 212.5 pg/mL
sVEGFR1 serum level post treatment (median) (CYCLE 2 DAY 8): 341.5 pg/mL
sVEGFR2 serum level post treatment (median) (CYCLE 2 DAY 8): 13352.1 pg/mL
sVEGFR3 serum level post treatment (median) (CYCLE 2 DAY 8): 4030.9 pg/mL
Eotaxin ratio (Median), PR group (CYCLE 2 DAY 8/CYCLE 1 DAY 1): 1.541
Eotaxin ratio (Median), others (SD or PD) (CYCLE 2 DAY 8/CYCLE 1 DAY 1): 1.242
IP-10 ratio (Median), PR group (CYCLE 2 DAY 8/CYCLE 1 DAY 1): 1.547
IP-10 ratio (Median), others (SD or PD) (CYCLE 2 DAY 8/CYCLE 1 DAY 1): 1.151
ANG2 (90) fold change (median) (CYCLE 2 DAY 8 vs CYCLE 1 DAY 1): 0.586
Ang-2 fold change (median) (CYCLE 2 DAY 8 vs CYCLE 1 DAY 1): 0.618
EGF (80) fold change (median) (CYCLE 2 DAY 8 vs CYCLE 1 DAY 1): 1.17
EGF fold change (median) (CYCLE 2 DAY 8 vs CYCLE 1 DAY 1): 0.808
Eotaxin fold change (median) (CYCLE 2 DAY 8 vs CYCLE 1 DAY 1): 1.363
G-CSF fold change (median) (CYCLE 2 DAY 8 vs CYCLE 1 DAY 1): 1.215
IL-6 fold change (median) (CYCLE 2 DAY 8 vs CYCLE 1 DAY 1): 1.299
IL-8 fold change (median) (CYCLE 2 DAY 8 vs CYCLE 1 DAY 1): 1.205
IP-10 fold change (median) (CYCLE 2 DAY 8 vs CYCLE 1 DAY 1): 1.382
MCP-1 fold change (median) (CYCLE 2 DAY 8 vs CYCLE 1 DAY 1): 1.086
PGF (91) fold change (median) (CYCLE 2 DAY 8 vs CYCLE 1 DAY 1): 3.05
SDF-1a fold change (median) (CYCLE 2 DAY 8 vs CYCLE 1 DAY 1): 1.345
Tie-2 fold change (median) (CYCLE 2 DAY 8 vs CYCLE 1 DAY 1): 0.766
VEGFA (100) fold change (median) (CYCLE 2 DAY 8 vs CYCLE 1 DAY 1): 1.426
sVEGFR1 fold change (median) (CYCLE 2 DAY 8 vs CYCLE 1 DAY 1): 0.805
sVEGFR2 fold change (median) (CYCLE 2 DAY 8 vs CYCLE 1 DAY 1): 0.499
sVEGFR3 fold change (median) (CYCLE 2 DAY 8 vs CYCLE 1 DAY 1): 0.843
